Test results from US20230265151A1, “GIP/GLP1 CO-AGONIST COMPOUNDS” (priority 2020, published 2023).
Like-named read-outs stand apart in the source and are kept apart here.

What was measured:
Format in all cases: cell-based
hGCGR = target: T1, hGCGR (Homo sapiens, UniProt P47871); test: Functional cAMP formation (HTRF) in HEK-293 clonal cells expressing hGCGR, 0.1% bovine casein, without or with 1.0% human serum albumin
T1 construct: expressed in transfected cells
Outline: (§1)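 Readings of the HTRF 665/620 nm ratio, which falls as cAMP rises, were converted to nM cAMP using a standard curve after 30 min peptide exposure at 37° C.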

hGLP-1R = hGLP-1R (Homo sapiens, UniProt P43220); test: Functional cAMP formation (HTRF) in HEK-293 clonal cells expressing hGLP-1R, 0.1% bovine casein, without or with 1.0% human serum albumin; parameters: expressed in transfected cells
Outline: as §1

hGIPR = target: T2, hGIPR (Homo sapiens, UniProt P48546); test: Functional cAMP formation (HTRF) in HEK-293 clonal cells expressing hGIPR, 0.1% bovine casein, without or with 1.0% human serum albumin; details: for EC50: geometric mean
T2 construct: expressed in transfected cells
T2 sequence (P48546 22-466): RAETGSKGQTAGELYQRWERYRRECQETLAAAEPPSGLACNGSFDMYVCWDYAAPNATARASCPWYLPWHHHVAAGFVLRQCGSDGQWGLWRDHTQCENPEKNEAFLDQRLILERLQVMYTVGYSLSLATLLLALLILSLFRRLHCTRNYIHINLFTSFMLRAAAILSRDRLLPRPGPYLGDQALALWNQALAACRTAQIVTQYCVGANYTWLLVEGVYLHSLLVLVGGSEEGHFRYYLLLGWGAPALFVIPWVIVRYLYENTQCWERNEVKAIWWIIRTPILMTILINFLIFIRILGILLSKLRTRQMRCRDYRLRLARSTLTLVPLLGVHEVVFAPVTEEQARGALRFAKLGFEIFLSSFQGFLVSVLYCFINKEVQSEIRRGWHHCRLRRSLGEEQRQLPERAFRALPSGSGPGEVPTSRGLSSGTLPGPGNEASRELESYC
Outline: as §1

Sequence of hGLP-1R (P43220 24-463): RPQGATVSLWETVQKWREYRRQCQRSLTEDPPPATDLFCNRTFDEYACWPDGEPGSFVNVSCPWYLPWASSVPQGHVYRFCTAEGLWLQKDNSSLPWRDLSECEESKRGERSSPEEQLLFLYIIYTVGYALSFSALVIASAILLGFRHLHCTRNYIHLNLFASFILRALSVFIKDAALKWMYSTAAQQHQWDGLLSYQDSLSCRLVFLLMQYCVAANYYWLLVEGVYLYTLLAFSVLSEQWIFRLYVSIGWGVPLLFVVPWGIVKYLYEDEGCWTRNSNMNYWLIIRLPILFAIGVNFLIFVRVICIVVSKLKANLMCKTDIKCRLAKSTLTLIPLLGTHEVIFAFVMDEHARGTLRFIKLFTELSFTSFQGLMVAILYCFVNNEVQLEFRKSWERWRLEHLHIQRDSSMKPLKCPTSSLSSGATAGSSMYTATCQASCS
T1 sequence (P47871 26-477): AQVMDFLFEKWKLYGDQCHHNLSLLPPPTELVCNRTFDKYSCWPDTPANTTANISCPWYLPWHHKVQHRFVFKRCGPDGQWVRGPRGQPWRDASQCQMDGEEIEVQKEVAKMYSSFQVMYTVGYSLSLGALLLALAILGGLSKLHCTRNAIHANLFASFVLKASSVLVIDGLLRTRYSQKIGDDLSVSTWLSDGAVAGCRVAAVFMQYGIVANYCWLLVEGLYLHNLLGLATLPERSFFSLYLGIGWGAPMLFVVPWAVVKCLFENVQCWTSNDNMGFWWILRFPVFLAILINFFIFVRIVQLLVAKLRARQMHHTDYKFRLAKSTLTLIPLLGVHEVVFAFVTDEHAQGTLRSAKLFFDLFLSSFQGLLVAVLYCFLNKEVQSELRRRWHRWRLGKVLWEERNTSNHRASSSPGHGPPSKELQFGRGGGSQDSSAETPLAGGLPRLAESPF

In the case of CC[C@H](C)[C@H](NC(=O)[C@H](CC(C)C)NC(=O)[C@](C)(Cc1ccc(O)cc1)NC(=O)[C@@H](CCC(=O)O)NC(=O)[C@@H](NC(=O)[C@H](Cc1ccccc1)NC(=O)[C@H](CCCCNC(=O)COCCOCCNC(=O)COCCOCCNC(=O)CC[C@H](NC(=O)CCCCCCCCCOc1ccc(C(=O)O)cc1)C(=O)O)NC(=O)C(C)(C)NC(=O)[C@H](CCC(N)=O)NC(=O)[C@H](C)NC(=O)[C@H](CCCCNC(=O)COCCOCCNC(=O)COCCOCCNC(=O)CC[C@H](NC(=O)CCCCCCCCCOc1ccc(C(=O)O)cc1)C(=O)O)NC(=O)[C@H](CCCN)NC(=O)[C@H](CC(=O)O)NC(=O)[C@H](CC(C)C)NC(=O)[C@](C)(CC(C)C)NC(=O)[C@@H](NC(=O)[C@H](CO)NC(=O)[C@H](Cc1ccc2ccccc2c1)NC(=O)[C@H](CC(=O)O)NC(=O)[C@H](CO)NC(=O)[C@@H](NC(=O)[C@](C)(Cc1ccccc1F)NC(=O)[C@@H](NC(=O)CNC(=O)[C@H](CCC(=O)O)NC(=O)C(C)(C)NC(=O)[C@@H](N)Cc1ccc(O)cc1)[C@@H](C)O)[C@@H](C)O)[C@@H](C)CC)[C@@H](C)CC)C(=O)N[C@@H](CCC(=O)O)C(=O)NCC(=O)NCC(=O)N1CCC[C@H]1C(=O)N[C@@H](CO)C(=O)N[C@@H](CO)C(=O)NCC(=O)N[C@@H](C)C(=O)N1CCC[C@H]1C(=O)N1CCC[C@H]1C(=O)N1CCC[C@H]1C(=O)N[C@@H](CO)C(N)=O [Example 281], the EC50 (hGCGR; hGCGR EC50, nM (SEM, n), 0.1% bovine casein and 1.0% human serum albumin, 37° C., geometric mean) is reported as > 9950 nM, the EC50 (hGCGR; hGCGR EC50, nM (SEM, n), cAMP, 37° C., 0.1% bovine casein (no human serum albumin), geometric mean) is reported as > 9950 nM and the Emax (hGLP-1R; HEK293, read-out: hGLP-1R Emax, % ± SEM, 0.1% bovine casein and 1.0% human serum albumin, 37° C., percent of maximal response to GLP-1(7-36)NH2) is reported as 91.7%. For the same compound, the EC50 (hGLP-1R; hGLP-1R EC50, nM (SEM, n), cAMP, 37° C., 0.1% bovine casein (no human serum albumin), geometric mean) was 0.252 nM, the Emax (hGIPR; HEK293, read-out: hGIPR Emax, % ± SEM, 0.1% bovine casein and 1.0% human serum albumin, 37° C., percent of maximal response to GIP(1-42)NH2) was 97.9% and the Emax (hGIPR; HEK293, read-out: hGIPR Emax, % ± SEM, cAMP, 37° C., 0.1% bovine casein, percent of maximal response to GIP(1-42)NH2, arithmetic mean) was 110%. The EC50 (hGIPR; hGIPR EC50, nM (SEM, n), 0.1% bovine casein and 1.0% human serum albumin, 37° C.) was 1.87 nM and the EC50 (hGIPR; hGIPR EC50, nM (SEM, n), cAMP, 37° C., 0.1% bovine casein (no human serum albumin)) was 0.0187 nM.
CC[C@H](C)[C@H](NC(=O)[C@H](CCCN)NC(=O)[C@H](CC(=O)O)NC(=O)[C@H](CC(C)C)NC(=O)[C@](C)(CC(C)C)NC(=O)[C@@H](NC(=O)[C@H](CO)NC(=O)[C@H](CCCCNC(=O)COCCOCCNC(=O)COCCOCCNC(=O)CC[C@H](NC(=O)CCCCCCCCCCCCC(=O)O)C(=O)O)NC(=O)[C@H](CC(=O)O)NC(=O)[C@H](CO)NC(=O)[C@@H](NC(=O)[C@](C)(Cc1ccccc1F)NC(=O)[C@@H](NC(=O)CNC(=O)[C@H](CCC(=O)O)NC(=O)C(C)(C)NC(=O)[C@@H](N)Cc1ccc(O)cc1)[C@@H](C)O)[C@@H](C)O)[C@@H](C)CC)C(=O)N[C@@H](C)C(=O)N[C@@H](CCC(N)=O)C(=O)NC(C)(C)C(=O)N[C@@H](CCC(=O)O)C(=O)N[C@@](C)(Cc1ccccc1)C(=O)N[C@H](C(=O)N[C@@H](CCCCNC(=O)COCCOCCNC(=O)COCCOCCNC(=O)CC[C@H](NC(=O)CCCCCCCCCCCCC(=O)O)C(=O)O)C(=O)N[C@@](C)(Cc1ccc(O)cc1)C(=O)N[C@@H](CC(C)C)C(=O)N[C@H](C(=O)N[C@@H](CCC(=O)O)C(=O)NCC(=O)NCC(=O)N1CCC[C@H]1C(=O)N[C@@H](CO)C(=O)N[C@@H](CO)C(=O)NCC(=O)N[C@@H](C)C(=O)N1CCC[C@H]1C(=O)N1CCC[C@H]1C(=O)N1CCC[C@H]1C(=O)N[C@@H](CO)C(N)=O)[C@@H](C)CC)[C@@H](C)CC [Example 110] was tested, and the EC50 (hGCGR; hGCGR EC50, nM (SEM, n), cAMP, incubated at 37° C., 0.1% bovine casein (no human serum albumin), geometric mean) was > 9950 nM, the Emax (hGLP-1R; HEK293, read-out: hGLP-1R Emax, % ± SEM, percent of maximal response to GLP-1(7-36)NH2, 37° C., 0.1% bovine casein, arithmetic mean) was 98.8% and the EC50 (hGLP-1R; hGLP-1R EC50, nM (SEM, n), cAMP, incubated at 37° C., 0.1% bovine casein (no human serum albumin), geometric mean) was 1.43 nM. The EC50 (hGIPR; hGIPR EC50, nM (SEM, n), cAMP, incubated at 37° C., 0.1% bovine casein (no human serum albumin)) was 0.0417 nM.
In the case of CC[C@H](C)[C@H](NC(=O)[C@H](CC(C)C)NC(=O)[C@](C)(Cc1ccc(O)cc1)NC(=O)[C@H](CCCCNC(=O)COCCOCCNC(=O)COCCOCCNC(=O)CC[C@H](NC(=O)CCCCCCCCCCCCC(=O)O)C(=O)O)NC(=O)[C@@H](NC(=O)[C@H](Cc1ccccc1)NC(=O)[C@H](CCC(=O)O)NC(=O)C(C)(C)NC(=O)[C@H](CCC(N)=O)NC(=O)[C@H](C)NC(=O)[C@H](CCC(N)=O)NC(=O)[C@H](CCCN)NC(=O)[C@H](CC(=O)O)NC(=O)[C@H](CC(C)C)NC(=O)[C@](C)(CC(C)C)NC(=O)[C@@H](NC(=O)C(C)(C)NC(=O)[C@H](Cc1ccc(O)cc1)NC(=O)[C@H](CC(=O)O)NC(=O)[C@H](CO)NC(=O)[C@@H](NC(=O)[C@](C)(Cc1ccccc1F)NC(=O)[C@@H](NC(=O)CNC(=O)[C@H](CCC(=O)O)NC(=O)C(C)(C)NC(=O)[C@@H](N)Cc1ccc(O)cc1)[C@@H](C)O)[C@@H](C)O)[C@@H](C)CC)[C@@H](C)CC)C(=O)N[C@@H](CCCCNC(=O)COCCOCCNC(=O)COCCOCCNC(=O)CC[C@H](NC(=O)CCCCCCCCCCCCC(=O)O)C(=O)O)C(=O)NCC(=O)NCC(=O)N1CCC[C@H]1C(=O)N[C@@H](CO)C(=O)N[C@@H](CO)C(=O)NCC(=O)N[C@@H](C)C(=O)N1CCC[C@H]1C(=O)N1CCC[C@H]1C(=O)N1CCC[C@H]1C(=O)N[C@@H](CO)C(N)=O [Example 412], the EC50 (hGCGR; cAMP, 37° C., 0.1% bovine casein (no human serum albumin), geometric mean, read-out: hGCGR EC50, nM (SEM, n)) is reported as > 9950 nM, the EC50 (hGCGR; cAMP, 37° C., 0.1% bovine casein and 1.0% human serum albumin, geometric mean (SEM, n), read-out: hGCGR EC50, nM (SEM, n)) is reported as > 9950 nM and the EC50 (hGLP-1R; cAMP, 37° C., 0.1% bovine casein (no human serum albumin), geometric mean, read-out: hGLP-1R EC50, nM (SEM, n)) is reported as 0.16 nM. It also gave an EC50 (hGLP-1R; cAMP, 37° C., 0.1% bovine casein and 1.0% human serum albumin, geometric mean (SEM, n), read-out: hGLP-1R EC50, nM (SEM, n)) of 18.3 nM, an Emax (hGIPR; HEK293, cAMP, 37° C., 0.1% bovine casein and 1.0% human serum albumin, percent of maximal response to GIP(1-42)NH2, read-out: hGIPR Emax, % ± SEM) of 87.5% and an Emax (hGIPR; HEK293, cAMP, 37° C., 0.1% bovine casein, percent of maximal response to GIP(1-42)NH2, arithmetic mean, read-out: hGIPR Emax, % ± SEM) of 95.4%. For the same compound, the EC50 (hGIPR; cAMP, 37° C., 0.1% bovine casein (no human serum albumin), read-out: hGIPR EC50, nM (SEM, n)) was 0.0108 nM.
With CC[C@H](C)[C@H](NC(=O)[C@H](CC(C)C)NC(=O)[C@](C)(Cc1ccc(O)cc1)NC(=O)[C@@H](CCC(=O)O)NC(=O)[C@@H](NC(=O)[C@H](Cc1ccccc1)NC(=O)[C@H](CCC(=O)O)NC(=O)C(C)(C)NC(=O)[C@H](CCC(N)=O)NC(=O)[C@H](C)NC(=O)[C@H](CCCCNC(=O)COCCOCCNC(=O)COCCOCCNC(=O)CC[C@H](NC(=O)CCCCCCCCCCCCC(=O)O)C(=O)O)NC(=O)[C@H](CCCN)NC(=O)[C@H](CC(=O)O)NC(=O)[C@H](CC(C)C)NC(=O)[C@](C)(CC(C)C)NC(=O)[C@@H](NC(=O)[C@H](CN)NC(=O)[C@@H](NC(=O)[C@H](CC(=O)O)NC(=O)[C@H](CO)NC(=O)[C@@H](NC(=O)[C@](C)(Cc1ccccc1F)NC(=O)[C@@H](NC(=O)CNC(=O)[C@H](CCC(=O)O)NC(=O)C(C)(C)NC(=O)[C@@H](N)Cc1ccc(O)cc1)[C@@H](C)O)[C@@H](C)O)C(C)C)[C@@H](C)CC)[C@@H](C)CC)C(=O)N[C@@H](CCC(=O)O)C(=O)NCC(=O)NCC(=O)N[C@@H](CCCCNC(=O)COCCOCCNC(=O)COCCOCCNC(=O)CC[C@H](NC(=O)CCCCCCCCCCCCC(=O)O)C(=O)O)C(=O)N[C@@H](CO)C(=O)N[C@@H](CO)C(=O)NCC(=O)N[C@@H](C)C(=O)N1CCC[C@H]1C(=O)N1CCC[C@H]1C(=O)N1CCC[C@H]1C(=O)N[C@@H](CO)C(N)=O [Example 201] the EC50 (hGCGR; 0.1% bovine casein and 1.0% human serum albumin, 37° C., geometric mean, read-out: hGCGR EC50, nM (SEM, n)) was > 9950 nM, the EC50 (hGCGR; cAMP, incubated at 37° C., 0.1% bovine casein (no human serum albumin), geometric mean, read-out: hGCGR EC50, nM (SEM, n)) was > 9950 nM and the EC50 (hGLP-1R; 0.1% bovine casein and 1.0% human serum albumin, 37° C., geometric mean, read-out: hGLP-1R EC50, nM (SEM, n)) was 25.1 nM. It also gave an Emax (hGLP-1R; HEK293, percent of maximal response to GLP-1(7-36)NH2, 37° C., 0.1% bovine casein, arithmetic mean, read-out: hGLP-1R Emax, % ± SEM) of 105 ± 4.51%, an Emax (hGIPR; HEK293, 0.1% bovine casein and 1.0% human serum albumin, 37° C., percent of maximal response to GIP(1-42)NH2, read-out: hGIPR Emax, % ± SEM) of 80.5% and an Emax (hGIPR; HEK293, percent of maximal response to GIP(1-42)NH2, 37° C., 0.1% bovine casein, arithmetic mean, read-out: hGIPR Emax, % ± SEM) of 92.2 ± 3.26%.
